Data on 51 compounds can be found in the supplement of paper PMC11997997.

The structures appear in SMILES notation.

Assay [1] deals with murine bone marrow-derived macrophages. As to the kind of experiment: area under cytotoxicity dose-response curve (AUC (% cytotoxicity x dose, relative)); higher = more cytotoxic. The following applies: duration: 6 days; dose range: 0.13-80 uM, 8 points. A digest of the protocol: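 Cytotoxicity is given as the area under the dose–response curve, computed in GraphPad Prism version 10. Primary murine bone marrow-derived macrophages in opaque 384-well plates received an 8-point, 2.5-fold dilution series (final 80–0.13 μM) for 6 days at 37 °C in 5% CO2. Viability was measured by Promega's CellTiter-Glo luminescence assay, with percent cytotoxicity normalised to vehicle and positive control wells.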

In assay [2] the test system is Mycobacterium tuberculosis CDC1551 (intracellular, in murine BMDM). Put plainly: area under intracellular growth-inhibition dose-response curve (AUC (% inhibition x dose, relative)); higher = more potent. The conditions noted are these: duration: 6 days; dose range: 0.13-80 uM, 8 points. A digest of the protocol: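 Luciferase-expressing M. tuberculosis CDC1551 was used at multiplicity of infection 1 for 1 h to infect primary murine bone marrow-derived macrophages in 384-well opaque plates, 24 h after seeding. Treatment followed for 6 days with an 8-dose, 2.5-fold series at final concentrations of 80–0.13 μM. GraphPad Prism was used to calculate the area under the growth-inhibition dose–response curve from Bright-Glo luciferin readings normalised to a reference drug control and the lowest-concentration wells.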

Turning to `NC(=S)N/N=C/c1ccc(-c2ccc(SC(F)F)cc2)o1`, the “area under cytotoxicity dose-response curve” value in assay [1] is 46.9. Further, the “area under intracellular growth-inhibition dose-response curve” value in assay [2] came to 271.
In the case of `C=C[C@]1(C)C[C@@H](OC(=O)CSCCN(CC)CC)[C@]2(C)C(C)CC[C@]3(CCC(=O)[C@H]32)[C@@H](C)[C@@H]1O.O=C(O)/C=C/C(=O)O` (some centres not stated), the “area under cytotoxicity dose-response curve” value in assay [1] is 89.1. In addition, the “area under intracellular growth-inhibition dose-response curve” value in assay [2] came to 199.
As to `NC(=S)N/N=C/c1cccc(Br)c1`, the “area under cytotoxicity dose-response curve” value in assay [1] was 35. For the same compound, the “area under intracellular growth-inhibition dose-response curve” value in assay [2] is 270.
The matching figures for `O=C(NCC(c1cccs1)N1CCOCC1)c1cc([N+](=O)[O-])cc([N+](=O)[O-])c1` (configuration not stated): 20.1 and 276.
The matching figures for `CC(=O)Nc1sc(N/N=C/c2ccc(N(C)C)cc2)nc1-c1ccc(C)cc1`: 6.8 and 263.
In the case of `COc1c(N2C[C@@H]3CCCN[C@@H]3C2)c(F)cc2c(=O)c(C(=O)O)cn(C3CC3)c12.Cl`, the “area under cytotoxicity dose-response curve” value in assay [1] was 62.8. Besides, the “area under intracellular growth-inhibition dose-response curve” value in assay [2] worked out at 269.
As to `CCOC(=O)N=Nc1c2nc3nonc3[nH]c-2c2ccccc12`, the “area under cytotoxicity dose-response curve” value in assay [1] stood at 186. Besides, the “area under intracellular growth-inhibition dose-response curve” value in assay [2] was found to be 136.
The matching figures for `CCn1c(SCc2ccc(C(=O)OC)o2)nnc1-c1c[nH]c2ccccc12`: 20.1 and 117.
Regarding `Cc1ccc(Cn2cc(-c3ccccc3)nn2)cc1`, the “area under cytotoxicity dose-response curve” value in assay [1] came out at 11.2. Moreover, in assay [2], the “area under intracellular growth-inhibition dose-response curve” value was 191.
The matching figures for `O=C(/C=C/c1cn(CC(O)CN2CCCCCC2)c2ccccc12)c1cccs1` (configuration not stated): less than 0 and 96.5.
The matching figures for `N=c1c2c(-c3ccccc3)c(-c3ccccc3)n(Cc3ccccc3)c2ncn1CCCn1ccnc1`: 49.3 and 48.2.
As for `O=C1/C(=C/c2cccs2)CCC1C1CCCC1` (configuration not stated), the “area under cytotoxicity dose-response curve” value in assay [1] is less than 0. Also, in assay [2], the “area under intracellular growth-inhibition dose-response curve” value came out at 132.
The matching figures for `O=C(CC12CC3CC(CC(C3)C1)C2)NCc1ccco1`: 60.5 and 224.
Consider `O=C(/C=C/c1cccs1)NC1CCCC1`, for which, in assay [1], the “area under cytotoxicity dose-response curve” value is 39.1. For the same compound, the “area under intracellular growth-inhibition dose-response curve” value in assay [2] was 114.
For the compound `COc1ccc(S(=O)(=O)N2CCN(C(=O)C3CC(=O)N(c4ccccc4F)C3)CC2)cc1OC` (configuration not stated), in assay [1], the “area under cytotoxicity dose-response curve” value amounted to 27.9. Also, in assay [2], the “area under intracellular growth-inhibition dose-response curve” value was found to be 104.
As for `Cc1cs/c(=N\C(=O)c2ccccc2)n1C`, the “area under cytotoxicity dose-response curve” value in assay [1] was determined as 57.5. Further, in assay [2], the “area under intracellular growth-inhibition dose-response curve” value turned out to be 102.
The matching figures for `CCOc1ccc(NC(=O)CCc2nnc3ccc(N4CCC(C)CC4)nn23)cc1`: 65.6 and 30.4.
As to `O=C(c1cc2ccccc2o1)N1CCN(Cc2ccc3c(c2)OCO3)CC1`, the “area under cytotoxicity dose-response curve” value in assay [1] is 68.3. Further, the “area under intracellular growth-inhibition dose-response curve” value in assay [2] worked out at 172.
As to `CN(C)[C@@H]1C(=O)C(C(N)=O)=C(O)[C@@]2(O)C(O)=C3C(=O)c4c(O)cccc4[C@@](C)(O)C3C[C@@H]12.Cl` (some centres not stated), the “area under cytotoxicity dose-response curve” value in assay [1] was 65.9. For the same compound, the “area under intracellular growth-inhibition dose-response curve” value in assay [2] was found to be 232.
As to `NC(=S)N/N=C/c1ccc(-n2nncc2-c2ccc(Cl)cc2)cc1`, the “area under cytotoxicity dose-response curve” value in assay [1] is 47.7. For the same compound, the “area under intracellular growth-inhibition dose-response curve” value in assay [2] was 216.
Regarding `COc1cccc(CNC(=O)CN2C(=O)NC(Cc3ccccc3)(c3ccccc3)C2=O)c1` (configuration not stated), the “area under cytotoxicity dose-response curve” value in assay [1] was 1.94. In assay [2], the “area under intracellular growth-inhibition dose-response curve” value was 89.4.
The matching figures for `Cc1ccc2[nH]c(/C(C#N)=C\c3ccc([N+](=O)[O-])o3)nc2c1`: 76.5 and 8.24.
For `CC1CCC(C(C)C)C(OC(=O)C[n+]2c(-c3ccc(Br)cc3)n(C)c3ccccc32)C1.[Cl-]` (configuration not stated), in assay [1], the “area under cytotoxicity dose-response curve” value is 82.2. Also, the “area under intracellular growth-inhibition dose-response curve” value in assay [2] worked out at 192.
With `O=C(NNC(=O)c1cc2ccccc2o1)c1ccncc1`, the “area under cytotoxicity dose-response curve” value in assay [1] stood at 11.1. For the same compound, the “area under intracellular growth-inhibition dose-response curve” value in assay [2] is 135.
Consider `Cc1cccc(C)c1-n1c(C)cc(/C=N/NC(=O)c2ccncc2)c1C`, for which the “area under cytotoxicity dose-response curve” value in assay [1] was 32.2. Further, the “area under intracellular growth-inhibition dose-response curve” value in assay [2] stood at 252.
In the case of `Cc1cccc(Cn2ccc(NC(=O)c3ccc4c(c3)OCO4)n2)c1`, the “area under cytotoxicity dose-response curve” value in assay [1] worked out at 85.5. For the same compound, the “area under intracellular growth-inhibition dose-response curve” value in assay [2] worked out at 133.
The matching figures for `COc1ccc(CCNc2cc(-c3ccccc3)nc3ncnn23)cc1`: less than 0 and 218.
The matching figures for `FC(F)Oc1ccc(NC(=S)Nc2ccc3c[nH]nc3c2)cc1`: less than 0 and 219.
The matching figures for `CC[n+]1c(/C=C/N(C)c2ccccc2)n(-c2ccccc2)c2ccc(-c3nc4ccccc4s3)cc21.[I-]`: 146 and 162.
For `Cc1ccc(C(=O)N2CCN(c3ccc(NC(=S)NC(=O)Cc4ccccc4)cc3)CC2)cc1`, the “area under cytotoxicity dose-response curve” value in assay [1] stood at 53.7. Further, the “area under intracellular growth-inhibition dose-response curve” value in assay [2] came to 212.
In the case of `CCCCCC(=O)NC(=S)Nc1ccc(NC(=O)c2ccco2)cc1`, in assay [1], the “area under cytotoxicity dose-response curve” value turned out to be 0.441. The “area under intracellular growth-inhibition dose-response curve” value in assay [2] worked out at 274.
In the case of `Cc1ccc(C(=O)Sc2cccccc2=O)cc1`, the “area under cytotoxicity dose-response curve” value in assay [1] worked out at 143. Further, the “area under intracellular growth-inhibition dose-response curve” value in assay [2] is less than 0.
The matching figures for `O=C(N/N=C/C=C\c1ccccc1[N+](=O)[O-])c1ccncc1`: 5.73 and 260.
In the case of `O=C1NC(=S)S/C1=C\C=C\c1ccc([N+](=O)[O-])o1`, in assay [1], the “area under cytotoxicity dose-response curve” value is 71.5. The “area under intracellular growth-inhibition dose-response curve” value in assay [2] amounted to 2.55.
The matching figures for `COc1ccc(/C=N/NC(=O)c2ccncc2)cc1Cn1nc([N+](=O)[O-])c(Br)c1C`: less than 0 and 273.
In the case of `CNC(=S)Nc1ccc(-c2nc3ccc(C)cc3s2)cc1`, in assay [1], the “area under cytotoxicity dose-response curve” value was 5.79. Further, the “area under intracellular growth-inhibition dose-response curve” value in assay [2] was 262.
Regarding `S=C(Nc1ccc(Oc2ccccc2)cc1)NC1CCCCCC1`, in assay [1], the “area under cytotoxicity dose-response curve” value worked out at 210. Moreover, the “area under intracellular growth-inhibition dose-response curve” value in assay [2] turned out to be 155.
The matching figures for `O=C(NCc1ccc(Cl)cc1)c1ccc(Br)o1`: 52.2 and 204.
`CCCCN(C(=O)c1ccco1)c1c(N)n(CCC)c(=O)[nH]c1=O`: the “area under cytotoxicity dose-response curve” value in assay [1] turned out to be 53.6. Besides, in assay [2], the “area under intracellular growth-inhibition dose-response curve” value is less than 0.
Take `Cc1cccc(NC(=O)COC(=O)CCc2c[nH]c3ccccc23)c1C`: in assay [1], the “area under cytotoxicity dose-response curve” value worked out at 28.4. In assay [2], the “area under intracellular growth-inhibition dose-response curve” value amounted to 27.4.
Turning to `Cn1nc([N+](=O)[O-])nc1Oc1ccc(C(C)(C)C)cc1`, the “area under cytotoxicity dose-response curve” value in assay [1] came out at 40.1. Further, the “area under intracellular growth-inhibition dose-response curve” value in assay [2] came out at 206.
As for `CC(C)Oc1ccc(C(=O)NC(=S)Nc2ccc(CN3CCOCC3)cc2)cc1`, the “area under cytotoxicity dose-response curve” value in assay [1] was found to be 2.7. Further, the “area under intracellular growth-inhibition dose-response curve” value in assay [2] is 136.
Regarding `Cc1ccc(C2=NN(C(=O)CCl)C(c3ccco3)C2)o1` (configuration not stated), in assay [1], the “area under cytotoxicity dose-response curve” value was found to be 73.1. For the same compound, in assay [2], the “area under intracellular growth-inhibition dose-response curve” value worked out at 88.6.
For `Cc1cc(/C=N/NC(N)=S)c(C)n1-c1ccc(Cl)cc1`, in assay [1], the “area under cytotoxicity dose-response curve” value came out at 44.8. Besides, the “area under intracellular growth-inhibition dose-response curve” value in assay [2] worked out at 220.
In the case of `CC(=O)NC(=S)Nc1ccc(NC(=O)COc2ccc(Cl)cc2Cl)cc1`, the “area under cytotoxicity dose-response curve” value in assay [1] was 38.6. Besides, the “area under intracellular growth-inhibition dose-response curve” value in assay [2] turned out to be 220.
For the compound `CC(C)(C)C(=O)N1CCN(c2ccc(NC(=O)c3ccc([N+](=O)[O-])o3)cc2)CC1`, the “area under cytotoxicity dose-response curve” value in assay [1] was 104. The “area under intracellular growth-inhibition dose-response curve” value in assay [2] stood at 105.
With `CC1CC(C)CN(C(=O)c2ccc(CNc3c(N4CCCC4)c(=O)c3=O)cc2)C1` (configuration not stated), the “area under cytotoxicity dose-response curve” value in assay [1] stood at 166. Besides, in assay [2], the “area under intracellular growth-inhibition dose-response curve” value was determined as 179.
With `O=C(O)C(=O)O.O=[N+]([O-])c1ccc(N2CCN(Cc3ccc([N+](=O)[O-])o3)CC2)cc1`, the “area under cytotoxicity dose-response curve” value in assay [1] turned out to be 45.2. In addition, the “area under intracellular growth-inhibition dose-response curve” value in assay [2] stood at 245.
In the case of `O=C(N/N=C/c1cccc2nccnc12)c1ccncc1`, the “area under cytotoxicity dose-response curve” value in assay [1] came to 36.1. Besides, the “area under intracellular growth-inhibition dose-response curve” value in assay [2] was found to be 271.
Take `CC(C)(O)C(=O)Nc1ccc([N+](=O)[O-])c(C(F)(F)F)c1`: the “area under cytotoxicity dose-response curve” value in assay [1] is 82.8. The “area under intracellular growth-inhibition dose-response curve” value in assay [2] was 35.7.
Consider `CC(=O)OCC1=C(C(=O)O)N2C(=O)[C@@H](NC(=O)CSc3ccncc3)[C@H]2SC1.[Na+]`, for which the “area under cytotoxicity dose-response curve” value in assay [1] was 52.5. In addition, the “area under intracellular growth-inhibition dose-response curve” value in assay [2] was determined as 114.
